Assay results from PubChem BioAssay (NCI).
Where “and” joins values, the source holds several entries; their conditions need not be identical. Equal entries are not always repeated.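 Step 1: Grow cells in 96-well plates. Step 2: Expose to compound for 48 hours at 5 concentrations. Step 3: Interpolate endpoints linearly; if unreached, use highest concentration. At the GI50, growth is halved. TGI marks complete inhibition of growth.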

Assays:
Assay in all cases: NCI tumour cell line growth inhibition, 48 h
HCC-2998 colon = tested on: HCC-2998 colon
K-562 leukemia = tested on: K-562 leukemia
LOX IMVI melanoma = tested on: LOX IMVI melanoma
NCI-H522 lung = tested on: NCI-H522 lung
OVCAR-5 ovarian = tested on: OVCAR-5 ovarian
OVCAR-8 ovarian = tested on: OVCAR-8 ovarian
PC-3 prostate = tested on: PC-3 prostate
SF-539 CNS = tested on: SF-539 CNS
SNB-75 CNS = tested on: SNB-75 CNS
SW-620 colon = tested on: SW-620 colon

| Compound | TGI (HCC-2998 colon) | TGI (K-562 leukemia) | TGI (LOX IMVI melanoma) | TGI (NCI-H522 lung) | TGI (OVCAR-5 ovarian) | TGI (OVCAR-8 ovarian) | TGI (PC-3 prostate) | TGI (SF-539 CNS) | TGI (SNB-75 CNS) | TGI (SW-620 colon) | GI50 (HCC-2998 colon) | GI50 (LOX IMVI melanoma) | GI50 (NCI-H522 lung) | GI50 (SF-539 CNS) | GI50 (SNB-75 CNS) |
| --- | --- | --- | --- | --- | --- | --- | --- | --- | --- | --- | --- | --- | --- | --- | --- |
| COC(=O)C(Cc1c[nH]c2ccccc12)NP(=O)(O)OCC1OC(n2cc(Br)c(=O)[nH]c2=O)CC1O (configuration not stated) | > 100 µM | > 100 µM | > 100 µM | > 100 µM | > 100 µM | > 100 µM | > 100 µM | > 100 µM | > 100 µM | > 100 µM |  |  |  |  |  |
| COc1ccc(-c2ncn(C[Si](C)(C)C)c2-c2ccc(OC)cc2)cc1 | 7.34 µM | 10.6 µM | 21 µM | 16.2 µM | 18.3 µM | 31.4 µM | 16.9 µM | 27.5 µM | 28.3 µM | 17 µM |  |  |  |  |  |
| CC1SC2(CCCCC2)N(NC(=O)CSc2nc3ccc(Cl)cc3c(=O)n2-c2ccccc2)C1=O (configuration not stated) | 41.8 µM | 73.8 µM | 37.4 µM | 34.1 µM | 58.4 µM | 59.1 µM | 56.1 µM | 33 µM | 50.4 µM | 75.2 µM |  |  |  |  |  |
| COc1c(Br)cc2ccccc2c1-c1c(OC)c(Br)cc2ccccc12 | > 100 µM | > 100 µM | > 100 µM | > 100 µM | > 100 µM | > 100 µM | > 100 µM | > 100 µM | > 100 µM | > 100 µM |  |  |  |  |  |
| CCCCc1ccc(Nc2nc(Cl)c3ccn(C4CC(Oc5ccc(C)cc5)C(COc5ccc(C)cc5)O4)c3n2)cc1 (configuration not stated) | > 46.4 µM | > 46.4 µM | > 46.4 µM | 30.7 µM | > 31.6 µM | > 46.4 µM | > 100 µM | > 46.4 µM | > 100 µM | > 46.4 µM |  |  |  |  |  |
| COC(=O)[C@]1(c2cc3ccccc3[nH]2)CC2CN(C(=O)OCc3ccccc3)C1CC2=O (some centres not stated) | > 100 µM | 45.1 µM | 66.6 µM | 66.8 µM | 27.9 µM | > 100 µM | 39 µM | > 100 µM | 64.6 µM | > 100 µM |  |  |  |  |  |
| COC(=O)CCNc1c2ccccc2nc2cccc([N+](=O)[O-])c12 | 2.33 µM | 0.00152 µM | 0.0172 µM and 0.053 µM | 0.00493 µM | 0.108 µM and 0.0278 µM |  | 0.126 µM | 0.0115 µM and 0.0395 µM | 0.0722 µM |  | 1.04 µM | 0.00367 µM and 0.0126 µM | 0.0016 µM | 0.00238 µM and 0.0131 µM | 0.0185 µM |
| CCCCc1ccc(Nc2nc(Cl)c3c(ncn3C3CC(Oc4ccc(C)cc4)C(COc4ccc(C)cc4)O3)n2)cc1 (configuration not stated) | > 100 µM | > 100 µM | > 100 µM | > 100 µM | > 100 µM | > 100 µM | > 100 µM | > 100 µM | 99.2 µM | > 100 µM |  |  |  |  |  |
| O=[N+]([O-])c1cc2ccc(N(CCO)CCO)nc2nc1N(CCO)CCO | > 100 µM | > 100 µM | > 100 µM | > 100 µM | > 100 µM | > 100 µM | > 100 µM | > 100 µM | > 100 µM | > 100 µM |  |  |  |  |  |
| Cc1ccc(N=Nc2c(O)ccc3cc(S(=O)(=O)O)ccc23)cc1 | > 100 µM | > 100 µM | > 100 µM and 38.2 µM | > 100 µM | > 100 µM | > 100 µM | > 100 µM | > 100 µM | > 100 µM | > 100 µM |  |  |  |  |  |
| COc1ccc(NC(C(N)=O)c2cc3cc(Br)ccc3nc2Cl)cc1 (configuration not stated) | > 100 µM | > 100 µM | > 100 µM | > 100 µM | > 100 µM | > 100 µM | > 100 µM | > 100 µM | > 100 µM | > 100 µM |  |  |  |  |  |
| CCOC(=O)/C=C(\C(=O)OCC)n1cc(Cl)c(=O)n(CC(=O)OCC)c1=O | 37.5 µM | 4.23 µM | 11.2 µM | 1.85 µM | 33.3 µM | 8.59 µM | 27.8 µM | 28.5 µM | 35.9 µM | 4.54 µM |  |  |  |  |  |
| O=c1c2cnccc2cc2c3ccccc3ccn12 | > 100 µM | > 100 µM | > 100 µM | > 100 µM | > 100 µM | > 100 µM | > 100 µM | > 100 µM | > 100 µM | > 100 µM |  |  |  |  |  |
| CCN(CC)c1ccc(/C=C2\CCc3ccc([N+](=O)[O-])cc3C2=O)cc1 | > 100 µM | > 100 µM | > 100 µM | > 100 µM | > 100 µM | > 100 µM | > 100 µM | 7.09 µM | 24.3 µM | > 100 µM |  |  |  |  |  |
| C=C(C)[C@H]1C2=CC(C)=C(O2)[C@@H](O)[C@H](C(=C)C)CCC2=C[C@H]1OC2=O | > 100 µM | > 100 µM | > 100 µM | > 100 µM | > 100 µM | > 100 µM | > 100 µM | > 100 µM | > 100 µM | > 100 µM |  |  |  |  |  |
| COC(=O)C1=C(O)CCCC(C2CCCCC(=O)C2C(=O)OC)=C1 (configuration not stated) | 91.6 µM | > 100 µM | > 100 µM |  | > 100 µM | > 100 µM | > 100 µM | > 100 µM | > 100 µM | > 100 µM |  |  |  |  |  |
| CN(CCCNC(=O)c1nn(C)c2c1Cc1ccccc1-2)CCCNC(=O)c1nn(C)c2c1Cc1ccccc1-2 | 23.5 µM | 25.6 µM | 21.1 µM | 40.6 µM | 40.8 µM | 46 µM | 34.1 µM | 33.9 µM | 31.5 µM | 27.9 µM |  |  |  |  |  |
